Assay results published in patent publication USRE47493E1, “Substituted bicyclic dihydropyrimidinones and their use as inhibitors of neutrophil elastase activity” (Boehringer Ingelheim International GmbH, priority 2014, dated 2019).
In brackets after ≈: the same amount, converted by molar mass. Read-outs that look alike come from different tables or passages of the source.

Legend:
[1] = target: Human neutrophil elastase (Homo sapiens (Human), UniProt P08246); experiment: Human Neutrophil Elastase Assay; format: biochemical
Procedure, shortened: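 Readout: AMC fluorescence (ex 380, em 460 nm) after 60 min room-temperature reaction with 250 nM MeOSuc-AAPV-AMC, following 15 min compound–enzyme preincubation. Buffer: Tris/NaCl pH 7.5, 0.01% BSA.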

[2] = target: neutrophil elastase in human plasma (Homo sapiens (Human), UniProt P08246); experiment: Assay for the Determination of Neutrophil Elastase Inhibitory Activity in Human Plasma; format: biochemical; conditions: neutrophil elastase enriched human plasma (zymosan-stimulated blood)
Method: Assay for the Determination of Neutrophil Elastase Inhibitory Activity in Human Plasma
Citrated blood from human healthy donors is mixed with zymosan suspension and incubated at room temperature. This leads to the stimulation of neutrophils and the release of neutrophil elastase into the plasma. The stimulated blood is centrifuged to generate the neutrophil elastase enriched plasma.
Preparation of Zymosan Working Solution:
• single 45 ml blood sample is taken into a 50 ml tube containing citrate (3.13%, 5 mL) and the tube is gently inverted 4 times. • Immediately after blood sampling, zymosan working solution (5 mL) is added. • After the addition of zymosan working solution, the tubes are capped, mixed gently and incubated at 22° C. for 15 min on a shaker at 20 rpm. • Make 10 ml aliquots after the incubation time. • Centrifuge the 15 ml tubes at 800 g for […] at 4° C. in a Jouan centrifuge. • Harvest the plasma and make 1-5 ml aliquots. • Store the plasma at −80° C.
Various concentrations of the neutrophil elastase inhibitor are incubated with plasma. Subsequently, the enzyme activity is measured using the fluorogenic substrate MeOSuc-Ala-Ala-Pro-Val-AMC (Bachem Cat. No. 1-1270, substrate concentration: 250 μM, pH 7.5, 25 mM TRIS buffer, 250 mM NaCl) in analogous fashion as described for the human neutrophil assay. A dose response curve is generated to calculate the EC50 of the inhibitor. The analysis of the data is performed by the calculation of the percentage of fluorescence in the presence of the test compound compared to the fluorescence of the vehicle control after subtracting the background fluorescence: An inhibitor of the neutrophil elastase enzyme will give values between 100% control (no inhibition) and 0% control (complete inhibition). The human plasma shift of selected compounds can be calculated using the following equation: Human plasma shift=(EC50 in human plasma assay)/(IC50 in human neutrophil elastase assay) The EC50 values of selected compounds in the human plasma assay described above are listed in Table 14.

[3] = Assay for Determination of Aqueous Solubility; format: physicochemical; conditions: McIlvaine buffer pH 6.8, 2.5% DMSO; for Aqueous solubility: 24 h
[4] = human neutrophil elastase, substrate MeOSuc-Ala-Ala-Pro-Val-AMC, pH 7.5, read-out: IC50

Sequence of Human neutrophil elastase (P08246 30-267): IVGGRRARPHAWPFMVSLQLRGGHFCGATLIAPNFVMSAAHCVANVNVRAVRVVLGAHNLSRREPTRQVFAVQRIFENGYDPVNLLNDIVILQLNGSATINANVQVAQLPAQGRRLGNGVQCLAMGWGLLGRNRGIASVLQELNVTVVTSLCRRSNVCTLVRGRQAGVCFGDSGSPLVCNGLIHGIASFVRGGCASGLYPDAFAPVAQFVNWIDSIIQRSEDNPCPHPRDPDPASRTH
Sequence of neutrophil elastase in human plasma (P08246 30-267): as above

IC50 [1, 4]	IC50 ([1]; read-out: IC50, inhibition of neutrophil elastase)	EC50 [2]	Aqueous solubility [3]	solubility at 24 h ([3]; McIlvaine buffer pH 6.8 with 2.5% DMSO, aqueous buffer, kinetic from dmso stock)	Structure (SMILES)
4.8 nM	4.8 nM	3 nM	78 µg/mL	–	CS(=O)(=O)c1cc(C#N)ccc1[C@H]1NC(=O)N(c2cccc(C(F)(F)F)c2)C2=C1C(=O)CCC2 (single isomer, unassigned) [Example 18A]
7.3 nM	–	2 nM	92 µg/mL	–	CS(=O)(=O)c1cc(C#N)ccc1[C@H]1NC(=O)N(c2cccc(C(F)F)c2)C2=C1C(=O)CCC2 (single isomer, unassigned) [Example 19A]
< 1 nM	–	1 nM	86 µg/mL	–	CNC(=O)N1C(=O)N(c2cccc(C(F)(F)F)c2)C2=C(C(=O)CCC2)[C@H]1c1ccc(C#N)cc1S(C)(=O)=O (single isomer, unassigned) [Example 47A]
3.2 nM	–	1 nM	59 µg/mL	–	CCS(=O)(=O)c1cc(C#N)ccc1[C@H]1NC(=O)N(c2cccc(C(F)(F)F)c2)C2=C1C(=O)CCC2 (single isomer, unassigned) [Example 54A]
1.7 nM	–	15 nM	–	12 µg/mL (≈ 22.8 µM)	CC(C)(O)CNC(=O)N1C(=O)N(c2cccc(C(F)(F)F)c2)C2=C(C(=O)CCC2)C1c1ccc(C#N)cc1 (stereo not shown) [Example 70.9]
